# Measurements as given in patent US11225505B2, “Antimicrobial polymyxin derivative compounds” (MONASH UNIVERSITY, priority 2015, dated 2022).
# Where a SMILES comes first, the peptide text is derived from it. Bridges are numbered along the chain shown (N, C = ends). [ ]: non-standard residue; d: D form. The star is where a group is joined. Benzothiophen(2-yl)carbonyl = O=C(c1cc2ccccc2s1)*; X18 = O=C(c1cc(-c2ccccc2)[nH]n1)*; X57 = O=C(c1nc2cc(Cl)ccc2[nH]1)*; X22 = Cn1c(C(=O)*)cc2ccccc21; X23 = O=C(c1cc2ccccc2[nH]1)*; X34 = O=C(c1cc(Br)c(Br)o1)*; X17 = O=C(c1ncc(Br)cc1Cl)*; X33 = O=C(c1cncc(Br)c1)*; Dab = NCC[C@H](N)C(=O)O; X70 = O=C(c1csc(Br)c1)*; Abu = CC[C@H](N)C(=O)O; Dap = NC[C@H](N)C(=O)O
# Legend:
# Type in all cases: cell-based
# [1] = tested on: Enterobacter cloacae FADDI-EC006; conditions: FADDI-EC006
# Outline: (§1)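 Lipopeptides (TFA salts) tested against Gram-negative strains by CLSI broth microdilution using cation-adjusted Mueller-Hinton broth; MIC recorded, polymyxin B sulphate as control.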
# [2] = tested on: Enterobacter cloacae FADDI-EC003; conditions: FADDI-EC003
# Outline: as §1
# [3] = tested on: Klebsiella pneumoniae FADDI-KP032; conditions: FADDI-KP032
# Outline: as §1
# [4] = tested on: Pseudomonas aeruginosa ATCC 27853; conditions: ATCC 27853
# Outline: as §1
# [5] = tested on: Klebsiella pneumoniae FADDI-KP022; conditions: FADDI-KP022
# Outline: as §1
# [6] = tested on: Pseudomonas aeruginosa FADDI-PA01; conditions: FADDI-
# Outline: as §1
# [7] = tested on: Acinetobacter baumannii ATCC 17978; conditions: ATCC 17978
# Outline: as §1
# [8] = tested on: Klebsiella pneumoniae Kp BM1; conditions: Kp BM1
# Outline: (§2)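 Standard CLSI (M100-S24) microdilution in cation-adjusted broth gives the MIC for each strain. Test compounds are TFA-salt lipopeptides; the comparator is polymyxin B sulphate.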
# [9] = tested on: Pseudomonas aeruginosa FADDI-PA038; conditions: FADDI-PA038
# Outline: as §1
# [10] = tested on: Pseudomonas aeruginosa FADDI-PA022; conditions: FADDI-PA022
# Outline: as §1
# [11] = tested on: Acinetobacter baumannii FADDI-AB034; conditions: FADDI-AB034
# Outline: as §1
# [12] = tested on: Enterobacter cloacae FADDI-EC001; conditions: FADDI-EC001
# Outline: as §2
# [13] = tested on: Acinetobacter baumannii FADDI-AB030; assay: microbe, parasite or virus in culture; conditions: FADDI-AB030
# Outline: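 Lipopeptide TFA salts tested against the multidrug-resistant clinical isolate by CLSI (M100-S24) broth microdilution in cation-adjusted Mueller-Hinton broth, with polymyxin B sulphate as control; MIC read.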
smiles,measurement,setting,value
CC[C@@H]1NC(=O)[C@@H](CC(C)C)NC(=O)[C@H](CCN)NC(=O)[C@@H](NC(=O)[C@H](CN)NC(=O)[C@@H](NC(=O)[C@H](CCN)NC(=O)c2ncc(Br)cc2Cl)[C@@H](C)O)CCNC(=O)[C@H]([C@@H](C)O)NC(=O)[C@H](CCN)NC(=O)[C@H](CCN)NC1=O [Compound 33] (X17-[Dab]T[Dap][Dab][Dab][dL][Abu][Dab][Dab]T; lactam 4-C),Minimum inhibitory concentration,[1],<0.125 µg/mL
same,Minimum inhibitory concentration,[2],<0.125 µg/mL
same,Minimum inhibitory concentration,[3],<0.125 µg/mL
same,Minimum inhibitory concentration,[4],0.25 µg/mL
same,Minimum inhibitory concentration,[5],<0.125 µg/mL
same,Minimum inhibitory concentration,[6],0.25 µg/mL
same,Minimum inhibitory concentration,[7],0.5 µg/mL
same,Minimum inhibitory concentration,[8],<0.125 µg/mL
same,Minimum inhibitory concentration,[9],0.5 µg/mL
same,Minimum inhibitory concentration,[10],0.25 µg/mL
same,Minimum inhibitory concentration,[11],0.5 µg/mL
same,Minimum inhibitory concentration,[12],<0.125 µg/mL
same,Minimum inhibitory concentration,[13],0.5 µg/mL
CC(C)C[C@H]1NC(=O)[C@H](CCN)NC(=O)[C@@H](NC(=O)[C@H](CN)NC(=O)[C@@H](NC(=O)[C@H](CCN)NC(=O)c2cc3ccccc3[nH]2)[C@@H](C)O)CCNC(=O)[C@H]([C@@H](C)O)NC(=O)[C@H](CCN)NC(=O)[C@H](CCN)NC(=O)[C@H]([C@@H](C)O)NC1=O [Compound 66] (X23-[Dab]T[Dap][Dab][Dab][dL]T[Dab][Dab]T; lactam 4-C),Minimum inhibitory concentration,[1],1 µg/mL
same,Minimum inhibitory concentration,[2],0.5 µg/mL
same,Minimum inhibitory concentration,[3],1 µg/mL
same,Minimum inhibitory concentration,[4],0.5 µg/mL
same,Minimum inhibitory concentration,[5],0.5 µg/mL
same,Minimum inhibitory concentration,[6],2 µg/mL
same,Minimum inhibitory concentration,[7],2 µg/mL
same,Minimum inhibitory concentration,[8],0.5 µg/mL
same,Minimum inhibitory concentration,[9],2 µg/mL
same,Minimum inhibitory concentration,[10],0.25 µg/mL
same,Minimum inhibitory concentration,[11],1 µg/mL
same,Minimum inhibitory concentration,[12],0.5 µg/mL
same,Minimum inhibitory concentration,[13],1 µg/mL
CC[C@@H]1NC(=O)[C@@H](CC(C)C)NC(=O)[C@H](CCN)NC(=O)[C@@H](NC(=O)[C@H](CN)NC(=O)[C@@H](NC(=O)[C@H](CCN)NC(=O)c2cc(Br)c(Br)o2)[C@@H](C)O)CCNC(=O)[C@H]([C@@H](C)O)NC(=O)[C@H](CCN)NC(=O)[C@H](CCN)NC1=O [Compound 79] (X34-[Dab]T[Dap][Dab][Dab][dL][Abu][Dab][Dab]T; lactam 4-C),Minimum inhibitory concentration,[1],0.25 µg/mL
same,Minimum inhibitory concentration,[2],<0.125 µg/mL
same,Minimum inhibitory concentration,[3],<0.125 µg/mL
same,Minimum inhibitory concentration,[4],0.25 µg/mL
same,Minimum inhibitory concentration,[5],<0.125 µg/mL
same,Minimum inhibitory concentration,[6],1 µg/mL
same,Minimum inhibitory concentration,[7],0.5 µg/mL
same,Minimum inhibitory concentration,[8],0.25 µg/mL
same,Minimum inhibitory concentration,[9],0.5 µg/mL
same,Minimum inhibitory concentration,[10],0.25 µg/mL
same,Minimum inhibitory concentration,[11],0.5 µg/mL
same,Minimum inhibitory concentration,[12],<0.125 µg/mL
same,Minimum inhibitory concentration,[13],0.25 µg/mL
CC[C@@H]1NC(=O)[C@@H](CC(C)C)NC(=O)[C@H](CCN)NC(=O)[C@@H](NC(=O)[C@H](CN)NC(=O)[C@@H](NC(=O)[C@H](CCN)NC(=O)c2csc(Br)c2)[C@@H](C)O)CCNC(=O)[C@H]([C@@H](C)O)NC(=O)[C@H](CCN)NC(=O)[C@H](CCN)NC1=O [Compound 101] (X70-[Dab]T[Dap][Dab][Dab][dL][Abu][Dab][Dab]T; lactam 4-C),Minimum inhibitory concentration,[1],0.5 µg/mL
same,Minimum inhibitory concentration,[2],0.5 µg/mL
same,Minimum inhibitory concentration,[3],0.5 µg/mL
same,Minimum inhibitory concentration,[4],0.25 µg/mL
same,Minimum inhibitory concentration,[5],1 µg/mL
same,Minimum inhibitory concentration,[6],0.25 µg/mL
same,Minimum inhibitory concentration,[7],0.5 µg/mL
same,Minimum inhibitory concentration,[8],0.5 µg/mL
same,Minimum inhibitory concentration,[9],0.5 µg/mL
same,Minimum inhibitory concentration,[10],0.25 µg/mL
same,Minimum inhibitory concentration,[11],0.5 µg/mL
same,Minimum inhibitory concentration,[12],0.5 µg/mL
same,Minimum inhibitory concentration,[13],0.5 µg/mL
CC[C@@H]1NC(=O)[C@@H](CC(C)C)NC(=O)[C@H](CCN)NC(=O)[C@@H](NC(=O)[C@H](CN)NC(=O)[C@@H](NC(=O)[C@H](CCN)NC(=O)c2cncc(Br)c2)[C@@H](C)O)CCNC(=O)[C@H]([C@@H](C)O)NC(=O)[C@H](CCN)NC(=O)[C@H](CCN)NC1=O [Compound 23] (X33-[Dab]T[Dap][Dab][Dab][dL][Abu][Dab][Dab]T; lactam 4-C),Minimum inhibitory concentration,[1],4 µg/mL
same,Minimum inhibitory concentration,[2],0.5 µg/mL
same,Minimum inhibitory concentration,[3],0.5 µg/mL
same,Minimum inhibitory concentration,[4],0.25 µg/mL
same,Minimum inhibitory concentration,[5],<0.125 µg/mL
same,Minimum inhibitory concentration,[6],0.5 µg/mL
same,Minimum inhibitory concentration,[7],2 µg/mL
same,Minimum inhibitory concentration,[8],0.25 µg/mL
same,Minimum inhibitory concentration,[9],0.5 µg/mL
same,Minimum inhibitory concentration,[10],0.25 µg/mL
same,Minimum inhibitory concentration,[11],0.5 µg/mL
same,Minimum inhibitory concentration,[12],0.5 µg/mL
same,Minimum inhibitory concentration,[13],0.5 µg/mL
CC(C)C[C@H]1NC(=O)[C@H](CCN)NC(=O)[C@@H](NC(=O)[C@H](CN)NC(=O)[C@@H](NC(=O)[C@H](CCN)NC(=O)c2cc3ccccc3n2C)[C@@H](C)O)CCNC(=O)[C@H]([C@@H](C)O)NC(=O)[C@H](CCN)NC(=O)[C@H](CCN)NC(=O)[C@H]([C@@H](C)O)NC1=O [Compound 64] (X22-[Dab]T[Dap][Dab][Dab][dL]T[Dab][Dab]T; lactam 4-C),Minimum inhibitory concentration,[1],2 µg/mL
same,Minimum inhibitory concentration,[2],1 µg/mL
same,Minimum inhibitory concentration,[3],0.5 µg/mL
same,Minimum inhibitory concentration,[4],0.5 µg/mL
same,Minimum inhibitory concentration,[5],0.25 µg/mL
same,Minimum inhibitory concentration,[6],0.5 µg/mL
same,Minimum inhibitory concentration,[7],2 µg/mL
same,Minimum inhibitory concentration,[8],0.5 µg/mL
same,Minimum inhibitory concentration,[9],1 µg/mL
same,Minimum inhibitory concentration,[10],0.25 µg/mL
same,Minimum inhibitory concentration,[11],1 µg/mL
same,Minimum inhibitory concentration,[12],1 µg/mL
same,Minimum inhibitory concentration,[13],1 µg/mL
CC[C@@H]1NC(=O)[C@@H](CC(C)C)NC(=O)[C@H](CCN)NC(=O)[C@@H](NC(=O)[C@H](CN)NC(=O)[C@@H](NC(=O)[C@H](CCN)NC(=O)c2cc3ccccc3s2)[C@@H](C)O)CCNC(=O)[C@H]([C@@H](C)O)NC(=O)[C@H](CCN)NC(=O)[C@H](CCN)NC1=O [Compound 50] ({Benzothiophen(2-yl)carbonyl}-[Dab]T[Dap][Dab][Dab][dL][Abu][Dab][Dab]T; lactam 4-C),Minimum inhibitory concentration,[1],0.5 µg/mL
same,Minimum inhibitory concentration,[2],0.5 µg/mL
same,Minimum inhibitory concentration,[3],0.25 µg/mL
same,Minimum inhibitory concentration,[4],0.5 µg/mL
same,Minimum inhibitory concentration,[5],<0.125 µg/mL
same,Minimum inhibitory concentration,[6],<0.125 µg/mL
same,Minimum inhibitory concentration,[7],<0.125 µg/mL
same,Minimum inhibitory concentration,[8],0.5 µg/mL
same,Minimum inhibitory concentration,[9],0.25 µg/mL
same,Minimum inhibitory concentration,[10],0.25 µg/mL
same,Minimum inhibitory concentration,[11],<0.125 µg/mL
same,Minimum inhibitory concentration,[12],0.25 µg/mL
same,Minimum inhibitory concentration,[13],0.5 µg/mL
CC[C@@H]1NC(=O)[C@@H](CC(C)C)NC(=O)[C@H](CCN)NC(=O)[C@@H](NC(=O)[C@H](CN)NC(=O)[C@@H](NC(=O)[C@H](CCN)NC(=O)c2cc(-c3ccccc3)[nH]n2)[C@@H](C)O)CCNC(=O)[C@H]([C@@H](C)O)NC(=O)[C@H](CCN)NC(=O)[C@H](CCN)NC1=O [Compound 84] (X18-[Dab]T[Dap][Dab][Dab][dL][Abu][Dab][Dab]T; lactam 4-C),Minimum inhibitory concentration,[1],<0.125 µg/mL
same,Minimum inhibitory concentration,[2],<0.125 µg/mL
same,Minimum inhibitory concentration,[3],0.25 µg/mL
same,Minimum inhibitory concentration,[4],0.25 µg/mL
same,Minimum inhibitory concentration,[5],<0.125 µg/mL
same,Minimum inhibitory concentration,[6],0.25 µg/mL
same,Minimum inhibitory concentration,[7],0.5 µg/mL
same,Minimum inhibitory concentration,[8],<0.125 µg/mL
same,Minimum inhibitory concentration,[9],0.5 µg/mL
same,Minimum inhibitory concentration,[10],0.25 µg/mL
same,Minimum inhibitory concentration,[11],0.5 µg/mL
same,Minimum inhibitory concentration,[12],0.25 µg/mL
same,Minimum inhibitory concentration,[13],0.5 µg/mL
CC[C@@H]1NC(=O)[C@@H](CC(C)C)NC(=O)[C@H](CCN)NC(=O)[C@@H](NC(=O)[C@H](CN)NC(=O)[C@@H](NC(=O)[C@H](CCN)NC(=O)c2nc3cc(Cl)ccc3[nH]2)[C@@H](C)O)CCNC(=O)[C@H]([C@@H](C)O)NC(=O)[C@H](CCN)NC(=O)[C@H](CCN)NC1=O [Compound 71] (X57-[Dab]T[Dap][Dab][Dab][dL][Abu][Dab][Dab]T; lactam 4-C),Minimum inhibitory concentration,[1],<0.125 µg/mL
same,Minimum inhibitory concentration,[2],<0.125 µg/mL
same,Minimum inhibitory concentration,[3],<0.125 µg/mL
same,Minimum inhibitory concentration,[4],0.5 µg/mL
same,Minimum inhibitory concentration,[5],<0.125 µg/mL
same,Minimum inhibitory concentration,[6],0.25 µg/mL
same,Minimum inhibitory concentration,[7],0.5 µg/mL
same,Minimum inhibitory concentration,[8],<0.125 µg/mL
same,Minimum inhibitory concentration,[9],2 µg/mL
same,Minimum inhibitory concentration,[10],0.5 µg/mL
same,Minimum inhibitory concentration,[11],0.5 µg/mL
same,Minimum inhibitory concentration,[12],0.25 µg/mL
same,Minimum inhibitory concentration,[13],0.25 µg/mL
